Data taken from patent publication US20210059964A1, “Anti-I-Type Allergy Agent, Degranulation Inhibitor for Basophils and Mast Cells, Anti-Dementia Agent, Agent for Improving/Inhibiting Short-Term Memory Impairment” (Mitsui Sugar Co., Ltd., priority 2018, published 2021).

Assays:
RBL-2H3 cells = assay: RBL-2H3 cell degranulation inhibition test; type: cell-based, rat; details: untreated control = 100
Description: Whether or not an anti-I-type allergy agent has a degranulation inhibitory action can be confirmed through the following method. For example, cells, such as rat basophilic leukemia cells (RBL-2H3 cells), which extracellularly release […] containing histamine through cross-linking of IgE bound on a cell surface due to an antigen are used. The extent to which the degranulation of a specimen to which an anti-I-type allergy agent is added is inhibited when these cells are stimulated by the antigen is calculated compared to a specimen to which no anti-I-type allergy agent is added. RBL-2H3 cells, which were rat basophilic leukemia cells, (National Institutes of Biomedical Innovation, Health and Nutrition) were seeded in a 96-well plate and were then cultured overnight. […] Then, the cells were washed with the buffer solutions. Furthermore, the prepared 1,000, 500, and 250 μg/mL test solutions were added thereto so that the final concentrations became 500 μg/mL (Example 1), 250 μg/mL (Example 2), and 125 μg/mL (Example 3), respectively. Thereafter, the mixtures were allowed to react at 37° C. for 10 minutes. Then, DNP-labeled human serum albumin was added thereto, and the mixtures were further allowed to react at 37° C. for 3 hours. […] For each sample of Examples 1 to 3, Comparative Example 1, a positive control, an antigen-unstimulated control, and sample blanks, the absorbance of p-nitrophenol generated by reaction between a substrate and β-hexosaminidase present in granules was measured (at a measurement wavelength of 405 nm and a control wavelength of 650 nm) using a microplate reader (SpectraMax M2e, Molecular Devices, LLC.) The emission rate was obtained using the following equation from the absorbance of each sample with respect to the absorbance of Comparative Example 1, and each degranulation rate was calculated from the emission rate. In the equation, “absorbance on cell supernatant” and “absorbance on cell solution side” are values obtained by subtracting the sample blanks. Emission rate (%)=absorbance on cell supernatant side/(absorbance on cell supernatant side+absorbance on cell solution side) Degranulation rate (%)={average value of (emission rate of test solution−emission rate of antigen-unstimulated control)/(emission rate of untreated control−emission rate of antigen-unstimulated control)}×100

[1] = test system: short-term memory impairment caused by accumulation of amyloid β proteins; assay: Y-shaped maze test in mice injected with amyloid β; type: in vivo; details: 100 mg/kg oral once a day
Description: p-Coumaric acid (trans-p-coumaric acid, Tokyo Chemical Industry Co., Ltd.) was stored at room temperature (control temperature: 18.0° C. to 28.0° C.) until it was used in a test. Injection water (Otsuka distilled water, Otsuka Pharmaceutical Factory, Inc.) was prepared as a medium in which p-coumaric acid was to be dissolved. The required amount of p-coumaric acid was weighed out and dissolved in the injection water. Then, the dissolved p-coumaric acid was diluted to a predetermined concentration to obtain a test solution.
Amyloid β (Amyloid-β Protein (25-35, Polypeptide Laboratories) to be used in an amyloid β solution was stored in a freezer (control temperature: −30° C. to −20° C.) until it was to be used in a test. Amyloid β was dissolved in injection water to 2 mM to prepare an amyloid β solution.
Male Slc:ddY mice (SPF, Japan SLC, Inc.) were used as test animals 5-week-old mice were obtained as the mice. Mice are animal species generally used in behavioral pharmacology tests, and maintenance of their strains is clear. The body weight range of the mice 1 day after the acquisition was 23.8 to 30.0 g.
Grouping was performed through a random sampling method on the start day of administration of a test solution so that the average body weight of each group was approximately uniform. As a group configuration, there were three groups: a pseudo-operation group, a medium control group, and a p-coumaric acid administration group. In the p-coumaric acid administration group, the amount of solution administered was calculated as 10 mL/kg based on the body weight on the administration day so that the amount of p-coumaric acid administered was 100 mg/kg per mouse. A 0.5% (w/v) methyl cellulose solution was administered to the pseudo-operation group and the medium control group at 10 mL/kg.
The start day of administration of a test solution was regarded as day 1 of administration, the test solution was administered once a day, and an amyloid β solution was injected into the mice on day 8 of the administration. Thereafter, a Y-shaped maze test was carried out on day 14 of the administration. Each procedure will be described below.
The administration route was oral administration. Regarding the administration method, a test solution was orally administered according to a usual method used in test facilities using a polypropylene disposable injection cylinder (TERUMO CORPORATION) equipped with a disposable oral sonde for mice (Fuchigami Kikai). At the time of the administration operation, the test solution was mixed by inversion every time it was administered to a mouse, and was then sucked into the injection cylinder. On the day of injection of an amyloid β solution, the test solution was administered after the injection of the amyloid β solution. […]

[2] = day 14, 8 minutes in maze, mean ± standard error

| SMILES | degranulation rate (RBL-2H3 cells; Wortmannin final concentration 25 nmol/L) [%] | degranulation rate (RBL-2H3 cells; p-coumaric acid final concentration 125 μg/mL) [%] | degranulation rate (RBL-2H3 cells; p-coumaric acid final concentration 250 μg/mL) [%] | degranulation rate (RBL-2H3 cells; p-coumaric acid final concentration 500 μg/mL, anti-DNP-IgE sensitised, DNP-labeled human serum albumin stimulated) [%] | Spontaneous alternation behavior number [1, 2] | Spontaneous behavior alternation rate (%) [1, 2] [%] | Total entry number [1, 2] | spontaneous alternation behavior rate compared with medium control group ([1]; day 14, significant difference p<0.01) |
| --- | --- | --- | --- | --- | --- | --- | --- | --- |
| COC[C@H]1OC(=O)c2coc3c2[C@@]1(C)C1=C(C3=O)[C@@H]2CCC(=O)[C@@]2(C)C[C@H]1OC(C)=O [Wortmannin, reference compound] | 39±6.4 |  |  |  |  |  |  |  |
| O=C(O)/C=C/c1ccc(O)cc1 [p-Coumaric acid] |  | 78±8.1 | 46±8.0 | 12±3.0 | 21.3 ± 1.5 | 66.0 ± 1.4 | 34.2 ± 2.1 | higher than that of the medium control group |
